According to patent US20250090540A1, “PI3K-ALPHA INHIBITORS AND METHODS OF USE THEREOF” (Relay Therapeutics, Inc., priority 2021, published 2025):
pIC50: −log10 of the molar value. Where two headings read alike, the source gives them in different places.

How the values were obtained:
H1047R PIK3CA enzyme = H1047R PIK3CA enzyme (Homo sapiens, UniProt P42336, H1047R); assay: ADP-Glo Biochemical PIK3CA Kinase Assay
cells = conditions: Homo sapiens, MCF-10A, read-out: MCF10A I50
[1] = ADP-Glo biochemical PIK3CA kinase assay

H1047R PIK3CA enzyme, sequence (P42336 whole entry H1047R): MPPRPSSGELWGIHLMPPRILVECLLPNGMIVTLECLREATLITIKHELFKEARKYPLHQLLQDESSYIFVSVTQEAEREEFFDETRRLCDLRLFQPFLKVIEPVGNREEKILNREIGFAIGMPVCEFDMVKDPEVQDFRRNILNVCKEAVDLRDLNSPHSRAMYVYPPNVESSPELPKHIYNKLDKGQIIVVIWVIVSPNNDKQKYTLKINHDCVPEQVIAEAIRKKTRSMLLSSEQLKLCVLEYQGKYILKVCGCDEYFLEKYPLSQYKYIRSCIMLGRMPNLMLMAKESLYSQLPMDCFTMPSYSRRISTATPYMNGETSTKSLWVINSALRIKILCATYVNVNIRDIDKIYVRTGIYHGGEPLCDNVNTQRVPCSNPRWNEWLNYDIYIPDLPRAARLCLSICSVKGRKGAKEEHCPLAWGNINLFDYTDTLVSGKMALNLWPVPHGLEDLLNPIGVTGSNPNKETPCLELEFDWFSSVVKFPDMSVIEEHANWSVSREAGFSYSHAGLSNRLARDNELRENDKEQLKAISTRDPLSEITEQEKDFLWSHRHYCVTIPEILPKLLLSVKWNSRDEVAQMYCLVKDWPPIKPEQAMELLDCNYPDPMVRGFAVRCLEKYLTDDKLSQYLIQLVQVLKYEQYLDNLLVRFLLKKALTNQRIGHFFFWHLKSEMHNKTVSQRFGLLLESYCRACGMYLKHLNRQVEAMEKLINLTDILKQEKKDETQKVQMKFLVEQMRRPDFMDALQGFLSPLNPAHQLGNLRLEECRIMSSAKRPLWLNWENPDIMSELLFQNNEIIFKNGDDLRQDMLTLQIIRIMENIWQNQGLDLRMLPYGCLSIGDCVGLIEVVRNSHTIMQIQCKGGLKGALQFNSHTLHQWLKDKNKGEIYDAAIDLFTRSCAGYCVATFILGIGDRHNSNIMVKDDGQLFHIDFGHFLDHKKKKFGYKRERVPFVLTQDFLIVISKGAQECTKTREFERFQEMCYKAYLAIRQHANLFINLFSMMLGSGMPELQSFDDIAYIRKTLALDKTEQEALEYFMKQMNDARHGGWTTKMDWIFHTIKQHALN
H1047R PIK3CA enzyme, sequence (P27986 whole entry partner): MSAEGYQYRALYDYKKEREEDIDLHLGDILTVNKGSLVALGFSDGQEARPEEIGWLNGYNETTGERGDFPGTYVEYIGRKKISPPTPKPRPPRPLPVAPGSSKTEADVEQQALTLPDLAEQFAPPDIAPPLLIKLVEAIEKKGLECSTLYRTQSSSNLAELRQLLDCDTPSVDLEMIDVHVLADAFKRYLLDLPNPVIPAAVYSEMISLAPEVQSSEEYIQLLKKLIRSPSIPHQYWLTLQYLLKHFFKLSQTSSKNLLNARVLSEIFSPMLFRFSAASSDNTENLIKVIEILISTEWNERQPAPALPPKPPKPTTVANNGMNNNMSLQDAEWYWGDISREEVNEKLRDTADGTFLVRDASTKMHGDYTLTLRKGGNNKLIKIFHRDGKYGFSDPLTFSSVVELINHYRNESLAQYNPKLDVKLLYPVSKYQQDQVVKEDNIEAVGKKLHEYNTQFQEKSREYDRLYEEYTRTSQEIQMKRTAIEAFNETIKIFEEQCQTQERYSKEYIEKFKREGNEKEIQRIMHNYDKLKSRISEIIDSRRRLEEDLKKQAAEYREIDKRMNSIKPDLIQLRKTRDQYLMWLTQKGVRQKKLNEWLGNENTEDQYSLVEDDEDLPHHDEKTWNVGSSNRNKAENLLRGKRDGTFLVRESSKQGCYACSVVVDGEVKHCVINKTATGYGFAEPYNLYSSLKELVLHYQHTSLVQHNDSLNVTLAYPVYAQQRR

Compound | pIC50 (H1047R PIK3CA enzyme; [1]) | pIC50 (cells) | pIC50 (H1047R PIK3CA enzyme)
CNC(=O)c1cnc(Nc2ccccc2C)c(NC(=O)c2cc(F)c(F)c(C(F)(F)F)c2)c1 [I-677] | 5.00 to 6.00 | 4.44 to 5.00 | –
Cn1nccc1CNC(=O)c1cnc(N2CCCc3ccccc32)c(NC(=O)c2cc(F)cc(C(F)(F)F)c2)c1 [I-210] | – | 4.00 to 4.44 | 5.00 to 6.00
Cc1ccccc1Nc1ncc(C(=O)NC2CCC(O)C2)cc1NC(=O)c1cc(F)cc(C(F)(F)F)c1 (centres unmarked) [I-275] | – | 5.30 to 6.00 | 6.30 to 7.00
Cc1ccccc1Nc1ncc(C(=O)NCc2nc(C3CC3)no2)cc1NC(=O)c1csc2ccccc12 [I-540] | ≥ 7.00 | 5.30 to 6.00 | –
CNC(=O)c1cnc(NC2CCOc3ccc(F)cc32)c(NC(=O)c2csc3ccccc23)c1 (centres unmarked) [I-745] | 6.30 to 7.00 | 5.00 to 5.30 | –
C[C@@H](NC(=O)c1cnc(N2CCOc3ccccc32)c(NC(=O)c2csc3ccccc23)c1)c1ccccn1 (racemic) [I-337] | – | 5.00 to 5.30 | 6.30 to 7.00
Cc1ccccc1Nc1ncc(C(=O)NCC2CCCOC2)cc1NC(=O)c1csc2ccccc12 (centres unmarked) [I-621] | 6.30 to 7.00 | 4.44 to 5.00 | –
Cc1ccccc1Nc1ncc(C(=O)NCc2ccnn2C)cc1NC(=O)c1csc2ccccc12 [I-135] | – | 5.30 to 6.00 | 6.30 to 7.00
Cc1ccccc1Nc1ncc(C(=O)NC2CS(=O)(=O)C2)cc1NC(=O)c1cc(F)cc(C(F)(F)F)c1 [I-51] | – | > 6.00 | ≥ 7.00
Cc1ccccc1Nc1ncc(C(=O)NCCn2nccn2)cc1NC(=O)c1csc2ccccc12 [I-578] | 6.30 to 7.00 | 4.44 to 5.00 | –
Cc1ccccc1Nc1ncc(C(=O)N[C@@H]2CC[C@@H](O)C2)cc1NC(=O)c1csc2ccccc12 [I-626] | 6.30 to 7.00 | 5.30 to 6.00 | –
Cc1ccccc1Nc1ncc(C(=O)Nc2cn(C)cn2)cc1NC(=O)c1csc2ccccc12 [I-508] | 6.30 to 7.00 | 4.44 to 5.00 | –
Cc1ccccc1Nc1ncc(C(=O)NC(C)c2nnc3ccccn23)cc1NC(=O)c1csc2ccccc12 (centres unmarked) [I-616] | ≥ 7.00 | 5.30 to 6.00 | –
CNC(=O)c1cnc(Nc2ccccc2C)c(NC(=O)c2nsc3ccccc23)c1 [I-139] | – | 4.44 to 5.00 | 6.00 to 6.30
CNC(=O)c1cnc(Nc2ccccc2C)c(NC(=O)c2csc3ccc(Cl)cc23)c1 [I-149] | – | 4.44 to 5.00 | 6.30 to 7.00
CNC(=O)c1cnc(Nc2cccc(F)c2F)c(NC(=O)c2cc(F)cc(C(F)(F)F)c2)c1 [I-296] | – | 5.00 to 5.30 | 6.30 to 7.00
CNC(=O)c1cnc(Nc2ncccc2OC)c(NC(=O)c2csc3ccccc23)c1 [I-405] | 4.00 to 5.00 | 4.00 to 4.44 | –
Cc1ccccc1Nc1ncc(C(=O)N[C@@H]2COC[C@@H]2F)cc1NC(=O)c1csc2ccccc12 [I-590] | 6.30 to 7.00 | 5.00 to 5.30 | –
Cc1ccccc1Nc1ncc(C(=O)Nc2ccnnc2)cc1NC(=O)c1cc(F)cc(C(F)(F)F)c1 [I-240] | – | > 6.00 | 6.30 to 7.00
Cc1ccccc1Nc1ncc(C(=O)NCC(F)F)cc1NC(=O)c1csc2ccccc12 [I-519] | ≥ 7.00 | 5.00 to 5.30 | –
Cc1ccccc1Nc1ncc(NC(=O)OC(C)(C)C)cc1NC(=O)c1cc(F)cc(C(F)(F)F)c1 [I-54] | – | 4.44 to 5.00 | 5.00 to 6.00
Cc1ccccc1Nc1ncc(-c2cnn(C)c2)cc1NC(=O)c1csc2ccc(F)cc12 [I-146] | – | 5.30 to 6.00 | 6.30 to 7.00
Cc1ccccc1Nc1ncc(CNC2CS(=O)(=O)C2)cc1NC(=O)c1cc(F)cc(C(F)(F)F)c1 [I-411] | 5.00 to 6.00 | 4.44 to 5.00 | –

Compound | pIC50 (H1047R PIK3CA enzyme; [1]) | pIC50 (cells) | pIC50 (H1047R PIK3CA enzyme)
Cc1ccccc1Nc1ncc(C(=O)NC2CC(F)(F)C2)cc1NC(=O)c1csc2ccccc12 [I-248] | – | 5.30 to 6.00 | 6.30 to 7.00
COc1cnccc1CCNC(=O)c1cnc(Nc2ccccc2C)c(NC(=O)c2csc3ccccc23)c1 [I-515] | 6.30 to 7.00 | 4.44 to 5.00 | –
Cc1ccccc1Nc1ncc(C(=O)NC2C[S+]([O-])C2)cc1NC(=O)c1csc2ccccc12 (centres unmarked) [I-311] | – | 5.30 to 6.00 | ≥ 7.00
Cc1ccccc1Nc1ncc(C(=O)NCC2CCN(C)C(=O)C2)cc1NC(=O)c1csc2ccccc12 (centres unmarked) [I-563] | 6.30 to 7.00 | 4.44 to 5.00 | –
Cc1ccccc1Nc1ncc(C(=O)NCc2cccnc2)cc1NC(=O)c1csc2ccccc12 [I-193] | – | 5.00 to 5.30 | 6.30 to 7.00
Cc1ccccc1Nc1cc2nnc(N)n2cc1NC(=O)c1csc2ccccc12 [I-350] | – | 5.30 to 6.00 | 5.00 to 6.00
Cc1ccccc1Nc1ncc(C(=O)NCC(F)(F)F)cc1NC(=O)c1csc2ccccc12 [I-196] | – | 5.00 to 5.30 | 6.30 to 7.00
Cc1cncc(CNC(=O)c2cnc(Nc3ccccc3C)c(NC(=O)c3csc4ccccc34)c2)c1 [I-579] | ≥ 7.00 | 5.00 to 5.30 | –
Cc1ccccc1Nc1ncc(C(=O)N[C@H]2CCOC2)cc1NC(=O)c1csc2ccccc12 [I-622] | 6.30 to 7.00 | 5.30 to 6.00 | –
O=C(NC1CS(=O)(=O)C1)c1cnc(N2CCCc3ccccc32)c(NC(=O)c2csc3ccccc23)c1 [I-180] | – | 4.44 to 5.00 | 6.30 to 7.00
CNC(=O)c1cnc(Nc2ccccc2C)c(NC(=O)C2(c3ccccc3Cl)CC2)c1 [I-499] | ≥ 7.00 | 4.44 to 5.00 | –
CNC(=O)c1cnc(Nc2cccc(C(F)(F)F)c2)c(NC(=O)c2cc(F)cc(C(F)(F)F)c2)c1 [I-292] | – | 4.44 to 5.00 | 5.00 to 6.00
CNC(=O)c1cnc(Nc2ccccc2C)c(NC(=O)c2ccc3nnc(Br)n3c2)c1 [I-564] | 6.00 to 6.30 | 4.44 to 5.00 | –
O=C(NC1CC(F)(F)C1)c1cnc(N2CCOc3ccccc32)c(NC(=O)c2csc3ccccc23)c1 [I-347] | – | 5.30 to 6.00 | 6.30 to 7.00
O=C(Nc1cc(C(=O)N[C@H]2C[C@H](O)C2)cnc1Nc1ccccc1)c1cc(F)cc(C(F)(F)F)c1 [I-396] | – | 5.30 to 6.00 | 6.30 to 7.00
Cc1ccccc1Nc1ncc(C(=O)Nc2cnn(C)c2)cc1NC(=O)c1csc2ccccc12 [I-624] | 6.30 to 7.00 | > 6.00 | –
CNC(=O)c1cnc(Nc2ncccc2C)c(NC(=O)c2csc3ccccc23)c1 [I-335] | – | 4.44 to 5.00 | 6.00 to 6.30
Cc1ccccc1Nc1ncc(C(=O)NC2CC(F)(F)C2)cc1NC(=O)c1cc(F)cc(C(F)(F)F)c1 [I-212] | – | 5.30 to 6.00 | 6.30 to 7.00
Cc1ccn2c(CNC(=O)c3cnc(Nc4ccccc4C)c(NC(=O)c4csc5ccccc45)c3)nnc2c1 [I-625] | 6.30 to 7.00 | 4.44 to 5.00 | –
Cc1ccccc1Nc1ncc(C(=O)N[C@H]2C[C@H](O)C2)cc1NC(=O)c1csc2ccccc12 [I-399] | ≥ 7.00 | 5.30 to 6.00 | –
Cc1ccccc1Nc1ncc(C(=O)N2CCn3nccc32)cc1NC(=O)c1csc2ccccc12 [I-627] | 5.00 to 6.00 | 4.44 to 5.00 | –
Cc1ccccc1Nc1ncc(C(=O)NCc2ccc3c(c2)OCCO3)cc1NC(=O)c1csc2ccccc12 [I-534] | ≥ 7.00 | 4.44 to 5.00 | –
CNC(=S)c1cnc(Nc2ccccc2C)c(NC(=O)c2csc3ccccc23)c1 [I-412] | 6.30 to 7.00 | 4.44 to 5.00 | –

Compound | pIC50 (H1047R PIK3CA enzyme; [1]) | pIC50 (cells) | pIC50 (H1047R PIK3CA enzyme)
CNC(=O)c1cnc(Nc2cccc(C(C)(C)C)c2)c(NC(=O)c2cc(F)cc(C(F)(F)F)c2)c1 [I-297] | – | 4.00 to 4.44 | 5.00 to 6.00
CNC(=O)c1cnc(Nc2cccc(F)c2C)c(NC(=O)c2cc(F)cc(C(F)(F)F)c2)c1 [I-302] | – | 5.00 to 5.30 | 6.00 to 6.30
Cc1ccccc1Nc1ncc(C(=O)NC2CCOCC2)cc1NC(=O)c1csc2ccccc12 [I-584] | 6.30 to 7.00 | 5.00 to 5.30 | –
Cc1ccccc1Nc1ncc(C(=O)Nc2ccc3cccnc3c2)cc1NC(=O)c1csc2ccccc12 [I-539] | 6.00 to 6.30 | 4.00 to 4.44 | –
CNC(=O)c1cnc(Nc2ccccc2C)c(NC(=O)c2cc(F)cc(OC(F)(F)F)c2)c1 [I-312] | – | 4.00 to 4.44 | 5.00 to 6.00
Cc1ccccc1Nc1ncc(C(=O)NCc2nnc3ccccn23)cc1NC(=O)c1csc2ccccc12 [I-582] | ≥ 7.00 | 5.00 to 5.30 | –
CNC(=O)c1cnc(Nc2ccccc2C)c(NC(=O)C(O)c2cccc(F)c2)c1 (centres unmarked) [I-27] | – | 5.30 to 6.00 | 6.00 to 6.30
Cc1ccccc1Nc1ncc(C(=O)N[C@@H]2CC(=O)N(C)C2)cc1NC(=O)c1csc2ccccc12 (racemic) [I-326] | – | 5.00 to 5.30 | 6.30 to 7.00
Cc1ccccc1Nc1ncc(C(=O)NCC2CCNC(=O)C2)cc1NC(=O)c1csc2ccccc12 (centres unmarked) [I-569] | 6.30 to 7.00 | 4.44 to 5.00 | –
Cc1ccccc1Nc1ncc(C(=O)NC2CCC(O)CC2)cc1NC(=O)c1cc(F)cc(C(F)(F)F)c1 (centres unmarked) [I-276] | – | 5.30 to 6.00 | 6.30 to 7.00
Cc1ccccc1Nc1ncc(C(=O)N[C@H]2CC[C@@H](F)C2)cc1NC(=O)c1csc2ccccc12 [I-546] | ≥ 7.00 | 5.00 to 5.30 | –
Cc1ccccc1Nc1ncc(C(=O)Nc2ncn(C)n2)cc1NC(=O)c1csc2ccccc12 [I-573] | 6.00 to 6.30 | 4.44 to 5.00 | –
Cc1ccccc1Nc1ncccc1NC(=O)c1cc(F)cc(C(F)(F)F)c1 [I-11] | – | 4.44 to 5.00 | 5.00 to 6.00
Cc1ccccc1Nc1ncc(C(=O)N[C@H]2CCCOC2)cc1NC(=O)c1csc2ccccc12 [I-545] | 6.30 to 7.00 | 5.30 to 6.00 | –
CNC(=O)c1cnc(Nc2ccccc2C)c(NC(=O)c2cc(C)nc(C(F)(F)F)c2)c1 [I-765] | 6.30 to 7.00 | 5.30 to 6.00 | –
Cc1ccccc1Nc1ncc(C2CC2)cc1NC(=O)c1cc(F)cc(C(F)(F)F)c1 [I-21] | – | 4.44 to 5.00 | 5.00 to 6.00
COCC(=O)N1CCC(NC(=O)c2cnc(Nc3ccccc3C)c(NC(=O)c3csc4ccccc34)c2)CC1 [I-592] | 5.00 to 6.00 | 5.00 to 5.30 | –
Cc1ccccc1Nc1ncc(C(=O)NCc2nccs2)cc1NC(=O)c1cc(F)cc(C(F)(F)F)c1 [I-65] | – | 5.30 to 6.00 | 6.30 to 7.00
CNC(=O)c1cnc(Nc2ccccc2C)c(NC(=O)c2csc3cnccc23)c1 [I-339] | – | 5.30 to 6.00 | 6.00 to 6.30
C[C@H](NC(=O)c1cnc(N2CCOc3ccccc32)c(NC(=O)c2csc3ccccc23)c1)c1ccncc1 (stereo in doubt) [I-315] | – | 4.44 to 5.00 | 6.00 to 6.30
Cc1ccccc1Nc1ncc(C(=O)NCc2cnn(C)c2)cc1NC(=O)c1cc(F)cc(C(F)(F)F)c1 [I-53] | – | 5.00 to 5.30 | 6.30 to 7.00
